{
  "source": "paper PMC4366261",
  "about": "“Characterization of the Intestinal Absorption of Seven Flavonoids from the Flowers of Trollius chinensis Using the Caco-2 Cell Monolayer Model” (PLoS ONE, 2015)",
  "key": {"influenza virus A": {"tested_on": "influenza virus A", "design": "method as in PMID 17193271", "conditions": "cited from earlier work"}, "Caco-2 cells": {"tested_on": "Caco-2 cells", "assay": "MTT assay, survival rate of Caco-2 cells", "assay_type": "cell-based, human", "conditions": "4 h", "description": "The human colon adenocarcinoma cell line Caco-2 (No. 3111C0001CCC000100, passage 32) was obtained from the Cell Resource Center, Peking Union Medical College (the headquarters of National Infrastructure of Cell Line Resource, NSTI) on May 3rd, 2013. The cell line was checked free of mycoplasma contamination by PCR and culture, its species origin was confirmed with PCR, and its identity was authenticated with STR profiling (FBI, CODIS). All results of the above tests can be viewed on the website (http://cellresource.cn). The cells were cultured in 25 cm^2 flasks in DMEM medium supplemented with 10% (v/v) FBS, 1% (v/v) NEAA, and 1% (v/v) penicillin-streptomycin, in an atmosphere of 5% CO2 at 37°C and constant moisture. The culture medium was replaced every 2 to 3 days, and the cells were split 1:2 or 1:3 as 80% confluence was obtained.\nCaco-2 cells at logarithmic growth phase were seeded into 96-well plates and incubated at 37°C in an atmosphere of 5% CO2 and constant moisture in the incubator. After the cells reached confluence, they were cultured in quadruplicate with 100 μL of HBSS solution (negative control) and compound-containing HBSS solution (seven flavonoids or paclitaxel (positive control) at the concentrations of 25, 50, and 100 μmol/L, respectively) for 4 h. Then, HBSS solution was replaced by 100 μL of MTT solution (0.5 mg/mL), and the supernatant was discarded after 4 h of incubation at 37°C. The cells were shaken with 150 μL of DMSO for 10 min, and the absorbance was read on the microplate reader at 570 nm. The survival rate %=A¯/A0¯×100 , wherein A¯ was the average absorbance value of treatment or positive control group, and A0¯ was the average absorbance value of negative control group."}, "murine ear edema model": {"tested_on": "murine ear edema model", "conditions": "cited from earlier work"}, "[1]": {"assay": "Transport experiment across Caco-2 cell monolayer (Papp)", "assay_type": "in vitro ADME, human", "conditions": "human, 50 μmol/L, 90 min", "experimental": "(§1) For cells differentiation to form a confluent monolayer, Caco-2 cells were seeded into the inserts of the 12-well Transwell plates at the density of 1.0×10^5 cells/cm^2. The culture medium was replaced on every other day in the first week, and then at daily intervals for the apical (AP) side and 2 days intervals for the basal (BL) side until the transport experiment was performed 21 days after seeding. The AP and BL sides contained 0.5 and 1.5 mL of culture medium, respectively. […] The cell inserts were considered as qualified only if the resistance reached above 600 Ω cm^2.\n(§2) On day 21, the transport experiment was initiated by removal of the culture medium from AP and BL sides. The Caco-2 monolayers were rinsed twice with pre-warmed Hanks balanced salt solution (HBSS) and were incubated with the same solution at 37°C for 30 min. The seven individual test compounds and an equimolar mixture of them were pre-dissolved in DMSO, and then diluted to 25, 50, and 100 μmol/L with an appropriate volume of HBSS to allow the final concentration of DMSO to be less than 1%. The test compounds were added to the AP (0.5 mL) or BL side (1.5 mL), while the receiving chamber contained the corresponding volume of HBSS. Incubation was performed at 37°C for 180 min, with shaking at 50 rpm. At 30, 60, 90, 120, 150, and 180 min, each 0.2 mL of the solution from BL or AP side was collected, and replaced with an equal volume of HBSS. The samples were frozen immediately and stored below-20°C before analysis.\n(§3) The apparent permeability coefficients (Papp) were determined in this study by HPLC quantification of the compounds in the receiver chamber after transport across the Caco-2 monolayer. The calculation was carried out in accordance with the formula Papp = (dQ/dt)×(1/A)×(1/C0), wherein dQ/dt was the rate of appearance of the test compound in the receiver compartment (μmol/s); C0 was the initial concentration of test compound in the donor compartment (μmol/mL); and A was the surface area of the Caco-2 monolayer (cm^2). The percentage transported (%) was calculated using the formula % transported = QB/(CS×VD)×100, wherein QB was the quantity of compound in the receiver compartment (μmol); CS was the concentration of test compound in the donor compartment (μmol/mL); VD was the liquid volume of the donor compartment (mL). The transport rate (μmol/h/cm^2) was calculated using the formula transport rate = QB/(t×A), wherein QB was the quantity of compound in the receiver compartment (μmol); t was the incubation time (h); A was the surface area of the Caco-2 monolayer (cm^2)."}, "Caco-2 cell monolayer": {"tested_on": "Caco-2 cell monolayer", "assay": "Transport experiment across Caco-2 cell monolayer (Papp)", "assay_type": "in vitro ADME, human", "conditions": "for P ratio Papp AP→BL/Papp BL→AP: 90 min", "experimental": "as §1, §2, §3"}, "[2]": {"assay": "Stability of sample solutions at room temperature by HPLC", "assay_type": "physicochemical", "conditions": "sample solution at room temperature, HPLC at 0, 1, 2, 4, 6, 12 and 24 h", "experimental": "The intra-day precision was determined by investigating the analytes in sextuplicates during a single day, and the inter-day precision was determined by conducting the intra-day experiment on two consecutive days. […] Each one sample solution of the seven flavonoids was kept at room temperature, and then their stabilities were determined by injecting them into apparatus at 0, 1, 2, 4, 6, 12, and 24 h."}, "[3]": {"conditions": "Caco-2, in the equimolar mixture of the seven flavonoids"}},
  "note": "Several values for one entry are separate records, joined by “and”; a condition that tells them apart may be missing. Equal values may be shown once.",
  "data": [
    {"smiles": "CCC(C)C(=O)O[C@@H]1[C@@H](O)[C@H](O)[C@@H](CO)O[C@H]1c1c(OC)cc(O)c2c(=O)cc(-c3ccc(O)cc3)oc12", "note": "(stereo partly drawn) [2”-O-(2”‘-methylbutanoyl)isoswertisin, (2S,3R,4S,5S,6R)-4,5-dihydroxy-2-(5-hydroxy-2-(4-hydroxyphenyl)-7-methoxy-4-oxo-4H-chromen-8-yl)-6-(hydroxymethyl)tetrahydro-2H-pyran-3-yl 2-methylbutanoate]", "values": [
      {"measurement": "Effect against influenza virus A", "setting": "influenza virus A", "value": "had an effect"},
      {"measurement": "Survival rates (%)", "setting": "Caco-2 cells; 25 μmol/L", "value": "108.8±10.3", "unit": "%"},
      {"measurement": "Survival rates (%)", "setting": "Caco-2 cells; 50 μmol/L", "value": "127.6±4.9", "unit": "%"},
      {"measurement": "Survival rates (%)", "setting": "Caco-2 cells; 100 μmol/L", "value": "128.9±12.5", "unit": "%"},
      {"measurement": "Inhibitory rate on murine ear edema model", "setting": "murine ear edema model", "value": 35.5, "unit": "%"},
      {"measurement": "Papp A→B at 90 min, 50 μmol/L", "setting": "[1]; [3]", "value": "3.49 ± 0.47", "unit": "×10⁻⁶ cm/s"},
      {"measurement": "Papp B→A at 90 min, 50 μmol/L", "setting": "[1]; [3]", "value": "13.7 ± 1.14", "unit": "×10⁻⁶ cm/s"},
      {"measurement": "Papp A→B at 90 min, 50 μmol/L", "setting": "[1]; Caco-2, individual compound", "value": "4.5 ± 0.03", "unit": "×10⁻⁶ cm/s"},
      {"measurement": "Papp B→A at 90 min, 50 μmol/L", "setting": "[1]; Caco-2, individual compound", "value": "4.8 ± 0.53", "unit": "×10⁻⁶ cm/s"},
      {"measurement": "Transport percentage BL to AP in the equimolar mixture compared with individual state", "setting": "Caco-2 cell monolayer; 50 μmol/L", "value": "increased almost twice"},
      {"measurement": "Absorbability assessment based on bidirectional Papp values", "setting": "Caco-2 cell monolayer; compared with atenolol and propranolol", "value": "moderate absorbable compound"},
      {"measurement": "Absorption mechanism", "setting": "Caco-2 cell monolayer; from P ratio, time course and concentration course", "value": "passive diffusion without participation of transporter"},
      {"measurement": "P ratio Papp AP→BL/Papp BL→AP", "setting": "Caco-2 cell monolayer; in the equimolar mixture of the seven flavonoids, 50 μmol/L", "value": 0.25},
      {"measurement": "P ratio Papp AP→BL/Papp BL→AP", "setting": "Caco-2 cell monolayer; individual compound, 50 μmol/L", "value": "~1 and 0.94"},
      {"measurement": "RSD% values for 24-hour stability", "setting": "[2]", "value": 3.89, "unit": "%"}
    ]}
  ]
}
